Experimental findings from ChEMBL document CHEMBL5465560, “Selectivity Literature for EUbOPEN Chemogenomic Library” (2024) are described below.

Each structure is given as a SMILES string.

Assay [1] has as its target CDK4/Cyclin D3 (Homo sapiens) (UniProt P11802+P30281). The following applies: at 10 µM.
For assay [2], the target named is Glycogen synthase kinase-3 alpha (Homo sapiens, UniProt P49840). The assay can be described thus: Selectivity interaction (Ambit KINOMEscan and KiNATiv profiling in Jurkat cells) EUB0000090b GSK3A. The class given is cell-based. To be noted: at 1 µM.
Assay [3] has as its target T1, Myosin light chain kinase family member 4 (Homo sapiens) (UniProt Q86YV6).
T1 sequence (whole entry): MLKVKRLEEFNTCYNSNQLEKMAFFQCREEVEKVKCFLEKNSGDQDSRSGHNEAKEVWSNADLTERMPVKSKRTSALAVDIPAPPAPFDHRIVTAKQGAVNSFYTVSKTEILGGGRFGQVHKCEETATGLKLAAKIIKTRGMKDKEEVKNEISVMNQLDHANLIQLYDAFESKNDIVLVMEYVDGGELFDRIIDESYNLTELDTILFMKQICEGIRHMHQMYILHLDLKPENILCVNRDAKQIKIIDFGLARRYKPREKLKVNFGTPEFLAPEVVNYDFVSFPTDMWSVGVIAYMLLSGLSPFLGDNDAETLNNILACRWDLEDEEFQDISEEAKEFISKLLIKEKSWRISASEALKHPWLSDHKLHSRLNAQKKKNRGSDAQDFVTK
Nature of the assay: Selectivity interaction (LanthaScreen Eu Kinase Binding Assay) EUB0001632a MYLK4. The following applies: at 10 µM. Background: In TR-FRET formats the signal depends on donor and acceptor labels being close together.

For assay [4], the target named is Receptor tyrosine-protein kinase erbB-2 (Homo sapiens, UniProt P04626). Nature of the assay: Selectivity interaction (SelectScreen profiling (Invitrogen)) EUB0000607a ERBB2. The following applies: at 2 µM.
Assay [5] concerns the target T2, Serine/threonine-protein kinase tousled-like 1 (Homo sapiens) (UniProt Q9UKI8).
T2 sequence (whole entry): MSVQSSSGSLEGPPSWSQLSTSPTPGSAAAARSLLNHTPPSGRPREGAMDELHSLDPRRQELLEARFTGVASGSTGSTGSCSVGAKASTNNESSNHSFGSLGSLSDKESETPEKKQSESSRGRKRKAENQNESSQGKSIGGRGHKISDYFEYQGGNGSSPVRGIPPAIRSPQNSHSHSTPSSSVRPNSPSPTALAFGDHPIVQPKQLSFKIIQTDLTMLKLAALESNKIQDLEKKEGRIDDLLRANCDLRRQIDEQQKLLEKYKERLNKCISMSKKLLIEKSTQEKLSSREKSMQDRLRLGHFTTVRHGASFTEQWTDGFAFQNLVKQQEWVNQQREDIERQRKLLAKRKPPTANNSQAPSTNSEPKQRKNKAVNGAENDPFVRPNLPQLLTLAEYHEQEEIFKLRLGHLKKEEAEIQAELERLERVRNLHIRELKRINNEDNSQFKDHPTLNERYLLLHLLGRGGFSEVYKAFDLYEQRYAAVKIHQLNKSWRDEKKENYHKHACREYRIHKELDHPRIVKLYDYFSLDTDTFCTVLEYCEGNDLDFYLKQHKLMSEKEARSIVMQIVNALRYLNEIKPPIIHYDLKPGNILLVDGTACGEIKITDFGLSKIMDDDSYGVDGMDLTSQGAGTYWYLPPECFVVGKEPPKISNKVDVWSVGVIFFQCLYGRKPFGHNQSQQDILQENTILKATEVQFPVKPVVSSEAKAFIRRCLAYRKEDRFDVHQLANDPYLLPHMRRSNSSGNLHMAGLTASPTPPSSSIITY
The assay can be described thus: Selectivity interaction (ActivX KiNativ screen (kinase selectivity in THP-1 cell lysates)) EUB0000639a TLK1. The class given is subcellular. To be noted: lysate.

For assay [6], the target named is T3, Tyrosine-protein kinase ITK/TSK (Homo sapiens) (UniProt Q08881).
T3 sequence (whole entry): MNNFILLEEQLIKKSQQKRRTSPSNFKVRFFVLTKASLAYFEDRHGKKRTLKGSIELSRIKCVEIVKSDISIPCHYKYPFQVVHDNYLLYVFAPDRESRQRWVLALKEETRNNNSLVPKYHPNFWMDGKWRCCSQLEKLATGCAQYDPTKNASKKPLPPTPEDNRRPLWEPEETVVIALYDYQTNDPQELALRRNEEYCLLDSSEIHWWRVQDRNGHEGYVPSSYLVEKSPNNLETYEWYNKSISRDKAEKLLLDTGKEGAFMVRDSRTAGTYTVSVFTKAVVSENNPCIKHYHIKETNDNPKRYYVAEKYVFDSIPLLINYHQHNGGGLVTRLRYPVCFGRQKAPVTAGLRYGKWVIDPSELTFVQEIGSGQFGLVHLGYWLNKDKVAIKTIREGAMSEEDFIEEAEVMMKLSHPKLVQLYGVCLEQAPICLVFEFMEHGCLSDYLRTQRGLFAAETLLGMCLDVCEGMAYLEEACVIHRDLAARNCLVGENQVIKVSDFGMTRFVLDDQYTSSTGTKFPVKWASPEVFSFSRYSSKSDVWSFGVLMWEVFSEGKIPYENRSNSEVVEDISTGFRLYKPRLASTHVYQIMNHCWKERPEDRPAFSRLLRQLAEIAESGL
The assay can be described thus: Selectivity interaction (KinomeScan (DiscoverX)) EUB0000229b ITK. The following applies: at 10 µM.

For assay [7], the target named is Serine/threonine-protein kinase/endoribonuclease IRE1 (Homo sapiens) (UniProt O75460). The assay can be described thus: Selectivity interaction (KinomeScan (DiscoverX)) EUB0001619a ERN1. To be noted: at 1 µM.
Chain of Serine/threonine-protein kinase/endoribonuclease IRE1 (Homo sapiens) (O75460 19-977 limits assumed): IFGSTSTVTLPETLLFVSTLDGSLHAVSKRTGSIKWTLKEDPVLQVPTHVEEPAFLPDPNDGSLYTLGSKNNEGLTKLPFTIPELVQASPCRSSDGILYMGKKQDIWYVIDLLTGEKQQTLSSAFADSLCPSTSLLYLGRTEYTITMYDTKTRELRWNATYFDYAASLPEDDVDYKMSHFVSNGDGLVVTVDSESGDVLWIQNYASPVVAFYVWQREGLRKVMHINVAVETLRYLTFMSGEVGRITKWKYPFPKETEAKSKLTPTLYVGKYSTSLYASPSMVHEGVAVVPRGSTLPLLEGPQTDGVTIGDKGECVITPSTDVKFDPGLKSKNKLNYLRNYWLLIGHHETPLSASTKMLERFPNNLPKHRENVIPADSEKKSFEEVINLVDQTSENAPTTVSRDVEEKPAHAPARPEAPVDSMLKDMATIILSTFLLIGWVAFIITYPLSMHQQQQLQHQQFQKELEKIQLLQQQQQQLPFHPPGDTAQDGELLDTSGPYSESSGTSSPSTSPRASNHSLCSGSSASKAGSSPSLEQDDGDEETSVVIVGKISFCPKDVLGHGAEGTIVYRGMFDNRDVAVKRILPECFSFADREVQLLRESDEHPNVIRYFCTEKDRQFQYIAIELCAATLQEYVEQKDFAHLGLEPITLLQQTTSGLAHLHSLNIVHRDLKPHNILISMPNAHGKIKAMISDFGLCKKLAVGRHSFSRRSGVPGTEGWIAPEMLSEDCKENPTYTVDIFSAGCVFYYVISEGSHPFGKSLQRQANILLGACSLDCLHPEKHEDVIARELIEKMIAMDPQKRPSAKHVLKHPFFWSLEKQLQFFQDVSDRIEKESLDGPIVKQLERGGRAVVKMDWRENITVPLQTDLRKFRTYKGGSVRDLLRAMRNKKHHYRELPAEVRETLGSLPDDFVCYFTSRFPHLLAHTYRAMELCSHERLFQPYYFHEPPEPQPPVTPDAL

Chain of Glycogen synthase kinase-3 alpha (P49840 2-483 limits assumed): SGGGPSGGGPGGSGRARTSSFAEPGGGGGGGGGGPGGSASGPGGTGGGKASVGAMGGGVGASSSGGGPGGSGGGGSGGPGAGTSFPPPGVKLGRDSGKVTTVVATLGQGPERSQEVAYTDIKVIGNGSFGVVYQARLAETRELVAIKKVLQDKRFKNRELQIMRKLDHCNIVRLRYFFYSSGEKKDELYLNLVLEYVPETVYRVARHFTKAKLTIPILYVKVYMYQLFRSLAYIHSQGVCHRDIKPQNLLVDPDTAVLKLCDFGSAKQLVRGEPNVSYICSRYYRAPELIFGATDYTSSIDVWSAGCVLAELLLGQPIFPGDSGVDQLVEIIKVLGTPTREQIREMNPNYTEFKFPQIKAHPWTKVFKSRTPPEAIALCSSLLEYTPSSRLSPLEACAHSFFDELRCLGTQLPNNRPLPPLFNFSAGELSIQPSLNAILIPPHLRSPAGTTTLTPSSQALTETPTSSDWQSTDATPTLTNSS
Chain of Receptor tyrosine-protein kinase erbB-2 (P04626 whole entry): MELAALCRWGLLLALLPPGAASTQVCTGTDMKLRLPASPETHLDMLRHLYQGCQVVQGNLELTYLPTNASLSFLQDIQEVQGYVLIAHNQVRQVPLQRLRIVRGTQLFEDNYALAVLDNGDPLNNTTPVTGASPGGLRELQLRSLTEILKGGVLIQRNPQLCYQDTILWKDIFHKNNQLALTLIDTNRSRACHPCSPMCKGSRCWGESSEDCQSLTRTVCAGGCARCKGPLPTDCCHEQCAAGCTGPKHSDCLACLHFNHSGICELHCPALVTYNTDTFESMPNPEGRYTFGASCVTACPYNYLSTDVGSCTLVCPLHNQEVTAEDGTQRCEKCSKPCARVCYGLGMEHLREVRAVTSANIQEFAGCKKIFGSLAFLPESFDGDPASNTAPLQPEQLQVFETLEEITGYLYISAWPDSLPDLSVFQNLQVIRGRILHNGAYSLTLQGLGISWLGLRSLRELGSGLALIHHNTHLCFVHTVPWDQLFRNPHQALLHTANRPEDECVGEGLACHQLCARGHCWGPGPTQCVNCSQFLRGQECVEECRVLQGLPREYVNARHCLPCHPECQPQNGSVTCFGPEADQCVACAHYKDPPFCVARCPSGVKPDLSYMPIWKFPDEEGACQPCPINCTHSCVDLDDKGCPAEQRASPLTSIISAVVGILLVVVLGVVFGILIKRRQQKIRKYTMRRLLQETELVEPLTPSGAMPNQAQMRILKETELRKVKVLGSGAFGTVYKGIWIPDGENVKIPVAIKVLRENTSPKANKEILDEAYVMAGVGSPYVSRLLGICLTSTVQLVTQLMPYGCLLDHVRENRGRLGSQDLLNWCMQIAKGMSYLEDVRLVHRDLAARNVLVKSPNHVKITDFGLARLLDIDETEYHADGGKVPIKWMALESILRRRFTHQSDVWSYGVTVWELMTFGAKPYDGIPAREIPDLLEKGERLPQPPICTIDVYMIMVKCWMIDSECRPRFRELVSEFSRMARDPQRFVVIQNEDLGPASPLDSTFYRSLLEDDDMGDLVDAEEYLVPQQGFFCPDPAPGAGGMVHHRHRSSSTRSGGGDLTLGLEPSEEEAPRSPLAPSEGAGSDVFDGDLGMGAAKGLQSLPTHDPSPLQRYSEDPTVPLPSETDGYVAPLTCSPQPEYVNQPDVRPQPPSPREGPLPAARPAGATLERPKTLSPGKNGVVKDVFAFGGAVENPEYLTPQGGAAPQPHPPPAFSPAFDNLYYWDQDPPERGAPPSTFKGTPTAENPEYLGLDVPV

`Cc1cc([C@@H](C)Nc2ccccc2C(=O)O)c2nc(N3CCOCC3)cc(=O)n2c1` [AZD-6482] gave a % of control in assay [1] of 100%. `CN(C)C/C=C/C(=O)Nc1ccc(C(=O)N2CCCC(Nc3ncc(Cl)c(-c4c[nH]c5ccccc45)n3)C2)cc1` (stereo unspecified) yielded a % of control in assay [2] of 5.7%.

`Cn1cc(-n2cnc3c(NCc4nc5cc(Cl)c(Cl)cc5[nH]4)nc(N4CCOCC4)nc32)cn1`: the % of inhibition in assay [3] was -25.4%. Regarding `CNC(=O)Nc1ccc(-c2nc(N3CC4CCC(C3)O4)c3cnn(C4CCC5(CC4)OCCO5)c3n2)cc1`, the % of inhibition in assay [4] amounted to 0%. `CC[C@@H]1[C@H](F)C(=O)N[C@@H]1COc1nccc2cc(C(N)=O)c(OC)cc12` [ZIMLOVISERTIB]: the % of inhibition came out at 10.2% in assay [5] (at 0.01 µM); 21.8% in assay [5] (at 0.04 µM); 4.8% in assay [5] (at 0.2 µM); 54% in assay [5] (at 1 µM); 62.2% in assay [5] (at 5 µM). In assay [6], `COc1cc(N(C)c2ccnc3ccc(C(F)(F)F)cc23)cc(OC)c1OC` came in with a % binding of 94%. Regarding `N#Cc1cccc(-c2c[nH]c3ncnc(N4CCOCC4)c23)c1`, the % of control in assay [7] was found to be 74%.
